{
  "source": "paper PMC7179302",
  "about": "“Lead Optimization of Dehydroemetine for Repositioned Use in Malaria” (Antimicrobial Agents and Chemotherapy, 2020)",
  "key": {"hERG potassium channel": {"target": "T1, hERG potassium channel (Homo sapiens, UniProt Q12809)", "T1 construct": "host or cells: Chinese hamster ovary (CHO) cells", "T1 sequence (Q12809 whole entry)": "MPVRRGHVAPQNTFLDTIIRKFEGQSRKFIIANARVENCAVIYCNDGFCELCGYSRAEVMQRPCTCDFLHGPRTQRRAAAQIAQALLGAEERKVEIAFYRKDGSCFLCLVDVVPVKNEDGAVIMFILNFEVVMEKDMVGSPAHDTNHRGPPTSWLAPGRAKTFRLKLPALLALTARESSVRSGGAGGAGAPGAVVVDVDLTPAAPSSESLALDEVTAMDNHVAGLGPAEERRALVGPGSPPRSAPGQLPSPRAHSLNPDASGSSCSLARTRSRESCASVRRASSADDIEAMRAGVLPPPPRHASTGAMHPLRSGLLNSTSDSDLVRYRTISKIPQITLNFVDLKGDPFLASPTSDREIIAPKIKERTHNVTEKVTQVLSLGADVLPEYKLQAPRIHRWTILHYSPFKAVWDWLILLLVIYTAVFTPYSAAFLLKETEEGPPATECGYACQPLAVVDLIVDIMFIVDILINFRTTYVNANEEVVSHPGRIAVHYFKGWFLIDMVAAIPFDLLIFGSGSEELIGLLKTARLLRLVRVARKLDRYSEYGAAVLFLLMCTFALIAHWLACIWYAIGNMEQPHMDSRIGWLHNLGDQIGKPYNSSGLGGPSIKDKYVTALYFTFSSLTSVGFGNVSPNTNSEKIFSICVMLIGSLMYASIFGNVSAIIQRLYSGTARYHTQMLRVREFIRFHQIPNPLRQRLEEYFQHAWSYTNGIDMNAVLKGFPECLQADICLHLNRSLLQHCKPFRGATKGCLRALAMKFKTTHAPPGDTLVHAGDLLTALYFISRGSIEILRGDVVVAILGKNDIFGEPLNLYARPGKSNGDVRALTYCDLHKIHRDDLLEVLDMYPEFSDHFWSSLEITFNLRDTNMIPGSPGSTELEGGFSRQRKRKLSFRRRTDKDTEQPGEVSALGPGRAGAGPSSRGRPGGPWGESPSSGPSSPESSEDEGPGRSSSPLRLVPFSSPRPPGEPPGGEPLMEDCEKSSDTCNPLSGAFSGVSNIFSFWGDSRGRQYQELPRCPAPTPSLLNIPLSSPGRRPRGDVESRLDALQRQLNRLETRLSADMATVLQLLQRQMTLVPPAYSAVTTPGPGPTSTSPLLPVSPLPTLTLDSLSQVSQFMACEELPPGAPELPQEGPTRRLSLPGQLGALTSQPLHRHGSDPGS", "test": "hERG channel inhibition assay (CHO cells, whole-cell voltage clamp, Cyprotex)", "type": "cell-based", "conditions": "for selectivity ratio at 300 s / inhibition at 300 s, 0.016 µM / inhibition at 300 s, 0.08 µM / inhibition at 300 s, 0.4 µM / inhibition at 300 s, 2 µM / inhibition at 300 s, 10 µM / inhibition at 300 s, 50 µM: human; for selectivity ratio at 300 s: CHO cells expressing the hERG potassium channel, read-out: Selectivity index, IC50 hERG/IC50 parasites", "description": "For each replicate, the hERG response was calculated using the following equation: % hERG response = post-compound-application current (nA)/pre-compound-application current (nA) × 100.\nThe experiment to test the potential of emetine, (−)-R,S-dehydroemetine, and (−)-S,S-dehydroisoemetine to inhibit the hERG channel was outsourced to Cyprotex, UK. One-hundred-microliter amounts of a 20 mM concentration of each of the three compounds in DMSO was provided to Cyprotex. […] Chinese Hamster ovary cells expressing the hERG potassium channel were dispensed into 384-well planar arrays, and hERG tail currents were measured by whole-cell voltage clamping. Amphotericin B was used as a perforating agent that was circulated underneath the PatchPlate to gain electrical access to the cell. The pre-compound-application hERG current was measured. Emetine, (−)-R,S-dehydroemetine, and (−)-S,S-dehydroisoemetine in ranges of concentrations were then added to the cells, and a second recording of the hERG current was made. The test compound was left in contact with the cells for 300 s before currents were recorded. […] All buffers, cell suspensions, and drug compound solutions were at room temperature. The percentage of change in hERG current was measured and used to calculate an IC50 value.\nEach concentration was tested in 4 replicate wells on the PatchPlate (maximum of 24 data points). Filters were applied to ensure that only acceptable cells were used to assess hERG inhibition."}, "[1]": {"test_system": "mitochondrial membrane potential of P. falciparum strain K1 trophozoites", "test": "Rhodamine 123 staining for mitochondrial membrane potential, flow cytometry", "type": "cell-based, Plasmodium falciparum", "conditions": "deviation from infected blood without drugs", "description": "Changes in mitochondrial membrane potential were measured using rhodamine 123 (excitation wavelength, 511 nm; emission wavelength, 534 nm), a membrane-permeating cationic fluorescent dye ([49]), which accumulates by electrostatic attraction in the mitochondria because of its negative transmembrane potential. A change in the dye’s concentration in the mitochondria is caused by a depolarization event and can be visualized as a shift in the fluorescence intensity of rhodamine 123 ([50]). Draq5 (excitation wavelength, 647 nm; emission wavelength, >665 nm) is a far-red fluorescent DNA dye which is cell permeating and was used to distinguish the parasites in flow cytometry in the allophycocyanin (APC)-Cy7-A channel. SYBR green was not preferred for this experiment as it emits in the same channel as rhodamine 123 and would result in the overlap of emission signals. Fluorescence microscopy was used to visualize the localization of rhodamine 123 within the cytoplasm of the parasites (Fig. 9).\nA decrease in fluorescence intensity measured in the fluorescein isothiocyanate (FITC)-A channel indicates a loss of mitochondrial membrane potential. Atovaquone, a known mitochondrial inhibitor, was used as a control.\nCompounds were then washed away by centrifuging the cultures, and a pellet was prepared for each drug concentration. Pellets were then incubated with 1 ml of 200 nM rhodamine 123 for 1 h, followed by a further incubation with 100 μl of 5 μM Draq5 for 20 min. After a wash with PBS, the experiment was read with a flow cytometer on the FITC channel. Loss of mitochondrial membrane potential was indicated by a decrease in fluorescence intensity."}, "P. falciparum strain Dd2": {"test_system": "P. falciparum strain Dd2", "test": "microbe, parasite or virus in culture", "type": "cell-based", "conditions": "Plasmodium falciparum, DD2, read-out: IC50 (μM) Dd2", "description": "(§1) The cross-resistance assay used relies on the parasites’ incorporation of labeled 3H-hypoxanthine, which is proportional to P. falciparum growth. In vitro cross-resistance of the compounds is measured as the ratio between the IC50 for the tested P. falciparum strain and the IC50 for strain 3D7A. Every replicate from a multidrug-resistant (MDR) strain involved a simultaneous determination using a 3D7A replicate to avoid any artifact linked to experimental conditions.\n(§2) The three strains used for the cross-resistance assay were 3D7A, Dd2, and W2, based on their resistance profiles; the assay was carried out by GSK, Tres Cantos. Strain 3D7A is chloroquine sensitive, strain Dd2 is resistant to chloroquine, mefloquine, and pyrimethamine ([57]), and strain W2 is resistant to chloroquine, quinine, pyrimethamine, cycloguanil, and sulfadoxine (from the Malaria Research and Reference Reagent Resource Center [MR4]) ([58]). A culture of red blood cells (RBCs) parasitized by the corresponding strain (0.5% parasitemia, 2% hematocrit) in RPMI 1640, […], and 5 μM hypoxanthine was exposed to 9 dilutions (3-fold serial dilutions) of the compound starting at 5 μM. One hundred microliters of culture volume was plated in 96-well flat-bottom microtiter plates with 0.5 μl drug (200× stock in DMSO). Plates were incubated for 24 h at 37°C, 5% CO2, 5% O2, 90% N2. Next, 3H-hypoxanthine was added and plates were incubated for another 24-h period. After that, parasites were harvested on a glass fiber filter using a TomTec cell harvester 96. Filters were dried, and melt-on scintillator sheets were used to determine the incorporation of 3H-hypoxanthine. Radioactivity was measured using a MicroBeta counter. […] IC50 values were determined using the Grafit 7 program ([41])."}, "P. falciparum strain W2": {"test_system": "P. falciparum strain W2", "test": "microbe, parasite or virus in culture", "type": "cell-based", "conditions": "Plasmodium falciparum, W2, read-out: IC50 (μM) W2", "description": "as §1, §2"}},
  "note": "Structures can show the parent of a compound that is named as a salt.",
  "data": [
    {"smiles": "CCC1=C(C[C@H]2NCCc3cc(OC)c(OC)cc32)C[C@H]2c3cc(OC)c(OC)cc3CCN2C1", "note": "[(−)-R,S-dehydroemetine, (S)-2-((R)-6,7-dimethoxy-1,2,3,4-tetrahydro-isoquinolin-1-ylmethyl)-3-ethyl-9,10-dimethoxy-1,6,7,11b-tetrahydro-4H-pyrido[2,1-a]isoquinoline * dihydrobromide]", "values": [
      {"measurement": "IC50", "setting": "hERG potassium channel", "result": 19.3, "unit": "µM"},
      {"measurement": "hERG channel inhibition (in words)", "setting": "hERG potassium channel", "result": "not an hERG channel inhibitor"},
      {"measurement": "selectivity ratio at 300 s", "setting": "hERG potassium channel", "result": "> 271"},
      {"measurement": "inhibition at 300 s, 0.016 µM", "setting": "hERG potassium channel", "result": 7.79, "unit": "%"},
      {"measurement": "inhibition at 300 s, 0.08 µM", "setting": "hERG potassium channel", "result": 6.34, "unit": "%"},
      {"measurement": "inhibition at 300 s, 0.4 µM", "setting": "hERG potassium channel", "result": 12.7, "unit": "%"},
      {"measurement": "inhibition at 300 s, 2 µM", "setting": "hERG potassium channel", "result": 7.21, "unit": "%"},
      {"measurement": "inhibition at 300 s, 10 µM", "setting": "hERG potassium channel", "result": 39.4, "unit": "%"},
      {"measurement": "inhibition at 300 s, 50 µM", "setting": "hERG potassium channel", "result": 61.4, "unit": "%"},
      {"measurement": "Change in fluorescence intensity (FITC-A mean) of rhodamine 123", "setting": "[1]; at 10× IC50, 2 h", "result": 32.98, "unit": "%"},
      {"measurement": "Change in fluorescence intensity (FITC-A mean) of rhodamine 123", "setting": "[1]; at IC50, 2 h", "result": 26.76, "unit": "%"},
      {"measurement": "IC50", "setting": "P. falciparum strain Dd2", "result": 0.177, "unit": "µM"},
      {"measurement": "IC50", "setting": "P. falciparum strain W2", "result": 0.168, "unit": "µM"}
    ]},
    {"smiles": "CCC1=C(C[C@@H]2NCCc3cc(OC)c(OC)cc32)C[C@H]2c3cc(OC)c(OC)cc3CCN2C1", "note": "[(−)-S,S-dehydroisoemetine, (S)-2-((S)-6,7-dimethoxy-1,2,3,4-tetrahydro-isoquinolin-1-ylmethyl)-3-ethyl-9,10-dimethoxy-1,6,7,11b-tetrahydro-4H-pyrido[2,1-a]isoquinoline * dihydrobromide]", "values": [
      {"measurement": "IC50", "setting": "hERG potassium channel", "result": 2.99, "unit": "µM"},
      {"measurement": "hERG channel inhibition (in words)", "setting": "hERG potassium channel", "result": "potent inhibitor"},
      {"measurement": "selectivity ratio at 300 s", "setting": "hERG potassium channel", "result": 1.48},
      {"measurement": "inhibition at 300 s, 0.016 µM", "setting": "hERG potassium channel", "result": 8.13, "unit": "%"},
      {"measurement": "inhibition at 300 s, 0.08 µM", "setting": "hERG potassium channel", "result": 4.61, "unit": "%"},
      {"measurement": "inhibition at 300 s, 0.4 µM", "setting": "hERG potassium channel", "result": 9.33, "unit": "%"},
      {"measurement": "inhibition at 300 s, 2 µM", "setting": "hERG potassium channel", "result": 36, "unit": "%"},
      {"measurement": "inhibition at 300 s, 10 µM", "setting": "hERG potassium channel", "result": 70.7, "unit": "%"},
      {"measurement": "inhibition at 300 s, 50 µM", "setting": "hERG potassium channel", "result": 96.9, "unit": "%"}
    ]}
  ]
}
